Among the data in US9951065B2 (Gilead Sciences, Inc., priority 2015, dated 2018) are EC50 values, retold here.

What is called EC50 is the concentration at which the effect is half-maximal. Lower therefore signals greater potency.

Bounds are passed on as bounds.

This assay deals with T1, IDO1 (Homo sapiens, UniProt P14902).
T1 construct: HeLa cells were treated with a test compound in the presence of IFNγ, which induces IDO1 expression; host or cells: H1-HeLa cells, IDO1 induced with IFNγ
T1 sequence (P14902 whole entry): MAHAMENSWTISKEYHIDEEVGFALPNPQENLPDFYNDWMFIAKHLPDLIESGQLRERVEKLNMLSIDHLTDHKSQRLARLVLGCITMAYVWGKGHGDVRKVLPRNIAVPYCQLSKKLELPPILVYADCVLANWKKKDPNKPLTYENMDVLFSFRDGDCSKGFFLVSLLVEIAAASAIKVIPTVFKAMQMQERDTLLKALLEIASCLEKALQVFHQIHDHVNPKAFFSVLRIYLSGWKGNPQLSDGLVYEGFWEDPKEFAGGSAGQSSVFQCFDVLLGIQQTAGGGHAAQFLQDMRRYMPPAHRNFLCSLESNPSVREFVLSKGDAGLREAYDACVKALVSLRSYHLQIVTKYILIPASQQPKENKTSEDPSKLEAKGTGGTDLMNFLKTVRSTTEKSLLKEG
The assay is described as follows: Cell-based (HeLa) assay for measurement of IDO1 inhibition (kynurenine levels in supernatant after IFNγ induction). The conditions noted are these: HeLa cells, IFNγ-induced IDO1, kynurenine in supernatant, 48 hour incubation; geometric mean of a minimum of four determinations. In a few lines:
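IDO1 activity is read as kynurenine released into the medium, detected with Ehrlich's reagent (p-dimethylaminobenzaldehyde) at 480 nm after TCA treatment. HeLa cells were exposed 48 h to compounds in 0.5% DMSO alongside IFNγ induction. Values normalized to no-IFNγ and IFNγ controls; four-parameter EC50 given as geometric mean of ≥4 determinations.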
In turn, `Cn1nccc1CNc1nc2nccc(/C(=N/O)Nc3ccc(F)c(Cl)c3)c2[nH]1` [Example 358, N-(3-chloro-4-fluorophenyl)-N′-hydroxy-2-(((1-methyl-1H-pyrazol-5-yl)methyl)amino)-1H-imidazo[4,5-b]pyridine-7-carboximidamide] came in with an EC50 of 8790 nM.
The figure for `O/N=C(\Nc1ccc(F)c(Cl)c1)c1ccc(F)c2nc(NCCN3CCOCC3)[nH]c12` [Example 368, N-(3-chloro-4-fluorophenyl)-4-fluoro-N′-hydroxy-2-((2-morpholinoethyl)amino)-1H-benzo[d]imidazole-7-carboximidamide] is 4000 nM.
Then `CN(C(=NO)c1ccnc2nc[nH]c12)c1ccc(F)c(Cl)c1` [Example 369, N-(3-chloro-4-fluorophenyl)-N′-hydroxy-N-methyl-1H-imidazo[4,5-b]pyridine-7-carboximidamide], with more than 10000 nM; and `Nc1nc2cc(F)cc(/C(=N/O)Nc3ccc(F)c(Cl)c3)c2[nH]1` [Example 370, 2-amino-N-(3-chloro-4-fluorophenyl)-5-fluoro-N′-hydroxy-1H-benzo[d]imidazole-7-carboximidamide], with 1080 nM; and `Nc1nc2cc(F)cc(/C(=N/O)Nc3cccc(Cl)c3)c2[nH]1` [Example 371, 2-amino-N-(3-chlorophenyl)-5-fluoro-N′-hydroxy-1H-benzo[d]imidazole-7-carboximidamide], with 644 nM.
Regarding `Nc1nc2cc(F)cc(/C(=N/O)Nc3cccc(Br)c3)c2[nH]1` [Example 372, 2-amino-N-(3-bromophenyl)-5-fluoro-N′-hydroxy-1H-benzo[d]imidazole-7-carboximidamide], the EC50 was 483 nM. This EC50 and that of the compound before are within 1.5-fold of each other.
The figure for `Nc1nc2cc(F)cc(/C(=N/O)Nc3ccc(F)c(Br)c3)c2[nH]1` [Example 373, 2-amino-N-(3-bromo-4-fluorophenyl)-5-fluoro-N′-hydroxy-1H-benzo[d]imidazole-7-carboximidamide] is 736 nM; for `O=S1(=O)CCN(CCNc2nc3c(F)c(F)cc(/C(=N/O)Nc4ccc(F)c(Cl)c4)c3[nH]2)CC1` [Example 374, N-(3-chloro-4-fluorophenyl)-2-((2-(1,1-dioxidothiomorpholino)ethyl)amino)-4,5-difluoro-N′-hydroxy-1H-benzo[d]imidazole-7-carboximidamide] it is 2400 nM.
Then `CCN(CC)CCNc1nc2c(F)ccc(/C(=N/O)Nc3ccc(F)c(Cl)c3)c2[nH]1` [Example 375, N-(3-chloro-4-fluorophenyl)-2-((2-(diethylamino)ethyl)amino)-4-fluoro-N′-hydroxy-1H-benzo[d]imidazole-7-carboximidamide], with 1190 nM; and `O/N=C(\Nc1ccc(F)c(Cl)c1)c1ccc(F)c2nc(NCCN3CCCC3)[nH]c12` [Example 376, N-(3-chloro-4-fluorophenyl)-4-fluoro-N′-hydroxy-2-((2-(pyrrolidin-1-yl)ethyl)amino)-1H-benzo[d]imidazole-7-carboximidamide], with 1260 nM.
`CC(CNc1nc2c(F)c(F)cc(/C(=N/O)Nc3ccc(F)c(Cl)c3)c2[nH]1)N1CCOCC1` (stereo not shown) [Example 377, N-(3-chloro-4-fluorophenyl)-4,5-difluoro-N′-hydroxy-2-((2-morpholinopropyl)amino)-1H-benzo[d]imidazole-7-carboximidamide] registered an EC50 of 838 nM. Against the preceding compound, the EC50 is about 1.5-fold lower.
The figure for `CC(CN(C)C)Nc1nc2c(F)c(F)cc(/C(=N/O)Nc3ccc(F)c(Cl)c3)c2[nH]1` (stereo not shown) [Example 378, N-(3-chloro-4-fluorophenyl)-2-((1-(dimethylamino)propan-2-yl)amino)-4,5-difluoro-N′-hydroxy-1H-benzo[d]imidazole-7-carboximidamide] is 1400 nM; for `CN(C)CCNc1nc2cc(F)cc(/C(=N/O)Nc3ccc(F)c(Cl)c3)c2[nH]1` [Example 379, N-(3-chloro-4-fluorophenyl)-2-((2-(dimethylamino)ethyl)amino)-5-fluoro-N′-hydroxy-1H-benzo[d]imidazole-7-carboximidamide] it is 435 nM.
